Data taken from ChEMBL document CHEMBL4507268 (2021).

Columns and labels:
Conditions in all cases: Compound concentration 1.0 uM
[1] = molecular target: T1, Inhibitor of nuclear factor kappa-B kinase subunit epsilon (Homo sapiens) (UniProt Q14164)
T1 sequence (whole entry): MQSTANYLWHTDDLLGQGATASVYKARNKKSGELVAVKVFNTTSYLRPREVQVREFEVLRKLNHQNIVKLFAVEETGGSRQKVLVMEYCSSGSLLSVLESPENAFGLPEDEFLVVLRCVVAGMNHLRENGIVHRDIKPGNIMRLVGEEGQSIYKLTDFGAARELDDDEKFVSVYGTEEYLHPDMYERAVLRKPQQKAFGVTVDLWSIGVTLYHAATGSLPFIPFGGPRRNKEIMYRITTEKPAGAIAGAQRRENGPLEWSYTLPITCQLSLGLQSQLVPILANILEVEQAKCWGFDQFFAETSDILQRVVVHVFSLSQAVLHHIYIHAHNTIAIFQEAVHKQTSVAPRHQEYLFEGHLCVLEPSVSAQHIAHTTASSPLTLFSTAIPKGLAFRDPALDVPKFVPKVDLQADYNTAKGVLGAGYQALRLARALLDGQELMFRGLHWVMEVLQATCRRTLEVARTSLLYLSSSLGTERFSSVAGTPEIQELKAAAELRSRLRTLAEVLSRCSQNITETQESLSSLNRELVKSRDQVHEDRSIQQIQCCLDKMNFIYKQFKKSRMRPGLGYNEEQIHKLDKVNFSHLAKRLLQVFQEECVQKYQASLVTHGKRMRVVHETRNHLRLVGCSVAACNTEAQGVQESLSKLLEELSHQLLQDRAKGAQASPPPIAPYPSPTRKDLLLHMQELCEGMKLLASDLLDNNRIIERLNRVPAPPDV

[2] = molecular target: T2, Muscle, skeletal receptor tyrosine-protein kinase (Homo sapiens) (UniProt O15146)
T2 sequence (whole entry): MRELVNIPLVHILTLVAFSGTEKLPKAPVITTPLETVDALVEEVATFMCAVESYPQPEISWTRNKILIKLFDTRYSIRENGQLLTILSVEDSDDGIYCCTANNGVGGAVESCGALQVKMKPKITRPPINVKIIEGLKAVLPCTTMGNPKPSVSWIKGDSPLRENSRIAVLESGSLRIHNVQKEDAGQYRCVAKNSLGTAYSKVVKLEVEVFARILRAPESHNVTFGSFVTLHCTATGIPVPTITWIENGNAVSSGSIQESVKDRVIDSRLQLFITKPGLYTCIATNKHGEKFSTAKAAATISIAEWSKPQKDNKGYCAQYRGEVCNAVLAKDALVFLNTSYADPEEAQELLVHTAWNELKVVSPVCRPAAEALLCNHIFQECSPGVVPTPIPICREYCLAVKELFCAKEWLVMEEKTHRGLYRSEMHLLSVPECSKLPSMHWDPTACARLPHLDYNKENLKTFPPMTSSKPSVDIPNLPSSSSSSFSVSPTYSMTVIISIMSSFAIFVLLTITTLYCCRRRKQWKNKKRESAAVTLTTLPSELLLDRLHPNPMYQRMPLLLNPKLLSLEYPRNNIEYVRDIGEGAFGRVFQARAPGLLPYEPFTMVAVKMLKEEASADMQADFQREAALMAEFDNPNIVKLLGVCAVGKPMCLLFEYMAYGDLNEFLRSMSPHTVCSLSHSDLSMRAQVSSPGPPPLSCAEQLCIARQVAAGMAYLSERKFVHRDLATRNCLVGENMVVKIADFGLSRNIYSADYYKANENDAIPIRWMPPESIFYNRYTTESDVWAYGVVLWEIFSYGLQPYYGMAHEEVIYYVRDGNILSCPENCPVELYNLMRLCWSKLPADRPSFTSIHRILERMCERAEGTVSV

[3] = molecular target: DNA-dependent protein kinase catalytic subunit (Homo sapiens) (UniProt P78527)
[4] = molecular target: Serine/threonine-protein kinase N2 (Homo sapiens) (UniProt Q16513)
[5] = molecular target: SRSF protein kinase 2 (Homo sapiens) (UniProt P78362)
[6] = molecular target: T3, Dual specificity mitogen-activated protein kinase kinase 7 (Homo sapiens) (UniProt O14733)
T3 sequence (whole entry): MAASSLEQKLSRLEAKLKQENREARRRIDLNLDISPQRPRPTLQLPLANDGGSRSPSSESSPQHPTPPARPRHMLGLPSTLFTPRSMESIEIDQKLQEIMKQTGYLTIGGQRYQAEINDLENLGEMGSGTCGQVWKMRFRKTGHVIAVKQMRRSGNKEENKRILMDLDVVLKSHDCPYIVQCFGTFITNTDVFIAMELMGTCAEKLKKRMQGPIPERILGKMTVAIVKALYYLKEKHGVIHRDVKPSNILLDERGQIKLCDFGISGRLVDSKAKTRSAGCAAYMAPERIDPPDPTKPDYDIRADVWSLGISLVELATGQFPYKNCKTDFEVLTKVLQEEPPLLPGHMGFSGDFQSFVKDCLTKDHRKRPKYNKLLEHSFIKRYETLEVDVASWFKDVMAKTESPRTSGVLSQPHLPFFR

[7] = molecular target: Interleukin-1 receptor-associated kinase 1 (Homo sapiens) (UniProt P51617)
[8] = molecular target: Serine/threonine-protein kinase pim-3 (Homo sapiens) (UniProt Q86V86)
[9] = molecular target: Serine/threonine-protein kinase B-raf (Homo sapiens) (UniProt P15056)
[10] = molecular target: Glycogen synthase kinase-3 alpha (Homo sapiens) (UniProt P49840)
[11] = molecular target: PI3K p110 beta/p85 alpha (Homo sapiens) (UniProt P27986+P42338)
[12] = molecular target: T4, Mitogen-activated protein kinase 12 (Homo sapiens) (UniProt P53778)
T4 sequence (whole entry): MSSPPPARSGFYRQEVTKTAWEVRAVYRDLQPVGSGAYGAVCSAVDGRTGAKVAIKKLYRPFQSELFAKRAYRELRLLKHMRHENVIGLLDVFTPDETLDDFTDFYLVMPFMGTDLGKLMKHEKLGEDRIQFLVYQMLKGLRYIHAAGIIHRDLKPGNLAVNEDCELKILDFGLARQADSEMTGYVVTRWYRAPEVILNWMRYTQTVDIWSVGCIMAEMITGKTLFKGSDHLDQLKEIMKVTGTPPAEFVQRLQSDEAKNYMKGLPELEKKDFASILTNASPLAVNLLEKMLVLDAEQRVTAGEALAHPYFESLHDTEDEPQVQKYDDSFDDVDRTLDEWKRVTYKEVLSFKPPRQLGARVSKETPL

[13] = molecular target: NT-3 growth factor receptor (Homo sapiens) (UniProt Q16288)

Measured: % residual kinase activity

Chain of Serine/threonine-protein kinase B-raf (Homo sapiens) (P15056 whole entry): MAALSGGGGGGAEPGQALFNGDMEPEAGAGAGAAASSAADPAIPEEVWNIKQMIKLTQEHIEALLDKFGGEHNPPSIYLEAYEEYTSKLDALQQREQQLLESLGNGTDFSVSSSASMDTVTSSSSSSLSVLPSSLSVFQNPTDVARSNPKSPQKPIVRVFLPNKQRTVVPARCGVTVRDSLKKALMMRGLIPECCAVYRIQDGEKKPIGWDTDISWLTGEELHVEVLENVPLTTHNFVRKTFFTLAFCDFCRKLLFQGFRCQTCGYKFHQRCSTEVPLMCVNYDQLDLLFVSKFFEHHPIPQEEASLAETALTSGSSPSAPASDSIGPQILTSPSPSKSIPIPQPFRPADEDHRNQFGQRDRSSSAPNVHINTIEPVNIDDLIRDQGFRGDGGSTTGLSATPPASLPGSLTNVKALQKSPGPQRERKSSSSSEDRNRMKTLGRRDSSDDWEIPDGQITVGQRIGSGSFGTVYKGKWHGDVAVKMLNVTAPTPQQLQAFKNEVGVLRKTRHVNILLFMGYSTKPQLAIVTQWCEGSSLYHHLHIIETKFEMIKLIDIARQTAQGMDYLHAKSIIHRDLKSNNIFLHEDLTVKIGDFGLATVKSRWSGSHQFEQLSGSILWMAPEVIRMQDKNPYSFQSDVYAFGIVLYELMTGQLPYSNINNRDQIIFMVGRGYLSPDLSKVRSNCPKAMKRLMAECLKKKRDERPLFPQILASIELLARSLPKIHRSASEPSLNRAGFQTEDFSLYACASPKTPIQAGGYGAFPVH
Chain of PI3K p110 beta/p85 alpha (Homo sapiens) (P27986 2-724 limits assumed): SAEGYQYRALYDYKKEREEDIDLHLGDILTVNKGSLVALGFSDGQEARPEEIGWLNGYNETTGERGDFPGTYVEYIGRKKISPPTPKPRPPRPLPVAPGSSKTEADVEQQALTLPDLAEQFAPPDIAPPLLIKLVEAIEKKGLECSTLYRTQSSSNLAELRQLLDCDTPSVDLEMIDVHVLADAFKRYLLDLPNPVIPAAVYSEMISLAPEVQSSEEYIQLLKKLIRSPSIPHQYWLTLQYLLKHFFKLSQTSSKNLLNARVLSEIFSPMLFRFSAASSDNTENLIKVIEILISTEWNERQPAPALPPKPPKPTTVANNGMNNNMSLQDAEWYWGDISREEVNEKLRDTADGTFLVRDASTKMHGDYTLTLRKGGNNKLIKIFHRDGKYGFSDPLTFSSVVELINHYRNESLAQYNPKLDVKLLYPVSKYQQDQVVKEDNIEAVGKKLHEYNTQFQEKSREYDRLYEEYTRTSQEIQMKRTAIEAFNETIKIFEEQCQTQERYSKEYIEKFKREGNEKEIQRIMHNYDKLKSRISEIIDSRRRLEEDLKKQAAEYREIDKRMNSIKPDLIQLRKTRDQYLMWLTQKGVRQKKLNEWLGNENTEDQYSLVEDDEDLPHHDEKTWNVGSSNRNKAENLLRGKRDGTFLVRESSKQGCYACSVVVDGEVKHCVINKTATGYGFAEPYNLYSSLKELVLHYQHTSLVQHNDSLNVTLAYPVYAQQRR
Chain of PI3K p110 beta/p85 alpha (Homo sapiens) (P42338 whole entry partner): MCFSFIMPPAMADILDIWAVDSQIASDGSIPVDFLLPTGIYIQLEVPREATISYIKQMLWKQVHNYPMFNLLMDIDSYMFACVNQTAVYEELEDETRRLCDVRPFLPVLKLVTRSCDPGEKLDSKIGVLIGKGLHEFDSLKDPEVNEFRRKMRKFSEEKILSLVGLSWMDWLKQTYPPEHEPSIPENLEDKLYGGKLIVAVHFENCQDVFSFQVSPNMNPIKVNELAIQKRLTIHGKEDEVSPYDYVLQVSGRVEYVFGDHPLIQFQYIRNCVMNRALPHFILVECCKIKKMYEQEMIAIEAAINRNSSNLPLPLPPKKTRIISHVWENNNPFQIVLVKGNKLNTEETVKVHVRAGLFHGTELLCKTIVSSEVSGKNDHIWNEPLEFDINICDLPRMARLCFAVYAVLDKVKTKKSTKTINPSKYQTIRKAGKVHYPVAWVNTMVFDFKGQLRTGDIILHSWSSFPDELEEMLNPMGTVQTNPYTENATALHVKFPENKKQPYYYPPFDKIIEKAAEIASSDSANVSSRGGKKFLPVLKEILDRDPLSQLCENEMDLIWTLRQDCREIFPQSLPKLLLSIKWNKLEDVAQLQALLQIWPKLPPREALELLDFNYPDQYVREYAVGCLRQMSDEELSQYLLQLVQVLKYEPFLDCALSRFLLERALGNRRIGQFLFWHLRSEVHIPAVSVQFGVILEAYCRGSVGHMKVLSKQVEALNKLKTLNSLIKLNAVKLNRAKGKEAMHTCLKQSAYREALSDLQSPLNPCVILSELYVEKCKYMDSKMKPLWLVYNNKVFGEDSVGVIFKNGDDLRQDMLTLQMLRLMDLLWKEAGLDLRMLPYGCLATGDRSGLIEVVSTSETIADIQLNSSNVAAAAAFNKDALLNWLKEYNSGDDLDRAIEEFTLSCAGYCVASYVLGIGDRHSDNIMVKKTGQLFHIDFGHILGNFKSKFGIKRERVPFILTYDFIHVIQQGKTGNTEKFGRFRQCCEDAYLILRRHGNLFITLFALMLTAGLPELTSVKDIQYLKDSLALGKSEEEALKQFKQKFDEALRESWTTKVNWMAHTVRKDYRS
Chain of NT-3 growth factor receptor (Homo sapiens) (Q16288 32-839 limits assumed): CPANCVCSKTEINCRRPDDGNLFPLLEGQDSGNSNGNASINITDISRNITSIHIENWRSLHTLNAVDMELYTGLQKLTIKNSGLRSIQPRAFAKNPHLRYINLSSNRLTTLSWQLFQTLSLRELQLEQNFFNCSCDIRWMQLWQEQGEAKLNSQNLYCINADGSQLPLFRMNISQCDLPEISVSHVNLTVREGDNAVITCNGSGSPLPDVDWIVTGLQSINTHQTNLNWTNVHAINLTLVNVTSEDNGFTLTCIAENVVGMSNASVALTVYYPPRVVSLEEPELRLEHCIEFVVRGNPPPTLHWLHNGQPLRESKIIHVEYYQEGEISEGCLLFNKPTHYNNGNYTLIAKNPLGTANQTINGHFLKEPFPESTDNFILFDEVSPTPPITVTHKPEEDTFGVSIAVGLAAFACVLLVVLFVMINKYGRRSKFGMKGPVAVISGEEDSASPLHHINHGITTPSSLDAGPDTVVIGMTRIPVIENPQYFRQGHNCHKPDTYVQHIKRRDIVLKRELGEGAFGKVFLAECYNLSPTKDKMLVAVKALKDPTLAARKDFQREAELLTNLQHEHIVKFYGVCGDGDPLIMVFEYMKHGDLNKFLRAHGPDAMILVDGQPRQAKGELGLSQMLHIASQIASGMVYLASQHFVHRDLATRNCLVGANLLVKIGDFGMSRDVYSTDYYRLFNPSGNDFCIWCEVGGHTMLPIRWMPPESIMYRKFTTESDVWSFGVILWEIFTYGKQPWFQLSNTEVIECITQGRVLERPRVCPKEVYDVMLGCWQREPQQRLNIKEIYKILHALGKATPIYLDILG
Chain of Interleukin-1 receptor-associated kinase 1 (Homo sapiens) (P51617 whole entry, looked up): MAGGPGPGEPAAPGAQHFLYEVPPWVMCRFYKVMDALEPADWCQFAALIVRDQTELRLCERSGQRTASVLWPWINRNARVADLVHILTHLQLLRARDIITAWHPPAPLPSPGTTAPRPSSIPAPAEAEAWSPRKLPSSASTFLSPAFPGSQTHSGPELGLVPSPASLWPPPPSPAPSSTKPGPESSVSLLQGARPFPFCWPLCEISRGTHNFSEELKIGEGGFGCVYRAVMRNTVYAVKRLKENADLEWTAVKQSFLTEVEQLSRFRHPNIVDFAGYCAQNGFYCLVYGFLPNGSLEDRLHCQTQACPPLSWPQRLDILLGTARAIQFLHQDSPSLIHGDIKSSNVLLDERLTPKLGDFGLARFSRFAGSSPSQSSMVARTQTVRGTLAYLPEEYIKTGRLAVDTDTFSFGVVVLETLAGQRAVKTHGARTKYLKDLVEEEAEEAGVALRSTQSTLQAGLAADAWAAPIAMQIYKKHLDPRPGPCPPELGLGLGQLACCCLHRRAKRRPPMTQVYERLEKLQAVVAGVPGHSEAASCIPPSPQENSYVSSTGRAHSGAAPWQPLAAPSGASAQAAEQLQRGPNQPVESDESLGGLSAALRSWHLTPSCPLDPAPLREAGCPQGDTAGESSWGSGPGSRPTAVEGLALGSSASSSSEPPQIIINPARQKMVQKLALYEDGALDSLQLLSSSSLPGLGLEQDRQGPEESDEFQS
Chain of Glycogen synthase kinase-3 alpha (Homo sapiens) (P49840 2-483 limits assumed): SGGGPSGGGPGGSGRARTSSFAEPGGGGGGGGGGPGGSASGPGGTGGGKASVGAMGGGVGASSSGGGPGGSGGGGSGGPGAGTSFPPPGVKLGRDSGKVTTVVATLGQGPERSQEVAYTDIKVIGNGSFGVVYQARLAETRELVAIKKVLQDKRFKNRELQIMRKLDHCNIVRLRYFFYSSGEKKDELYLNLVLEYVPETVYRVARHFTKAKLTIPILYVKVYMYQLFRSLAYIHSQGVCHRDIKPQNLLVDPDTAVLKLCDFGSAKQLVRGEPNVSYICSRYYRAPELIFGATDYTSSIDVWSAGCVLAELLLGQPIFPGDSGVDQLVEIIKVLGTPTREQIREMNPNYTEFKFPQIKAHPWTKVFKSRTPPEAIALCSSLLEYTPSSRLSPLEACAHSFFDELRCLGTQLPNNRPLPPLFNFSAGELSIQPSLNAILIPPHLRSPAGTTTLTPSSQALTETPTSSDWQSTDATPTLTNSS

CN1CCN(c2cnc3c(C4CCN(C(=O)c5ccc(OC(F)(F)F)cc5N)CC4)ncnc3c2)CC1 [BAY-885]
inactive: [1] 107% | [2] 130% | [3] 102% | [4] 104% | [5] 99% | [6] 106% | [7] 110% | [8] 102% | [9] 109% | [10] 112% | [11] 98% | [12] 112% | [13] 123%
